# “Also recorded” adds a separate entry of the source.
# How the values were obtained:
# [1] = system: snake venom phosphodiesterase; experiment: Stability to the action of snake venom phosphodiesterase; format: in vitro ADME
# Description: Determination of (2'-5')oligoadenylates and analogues stability to the action of snake venom phosphodiesterase
# Upon entering an organism 2'-5'A3 and the analogues are quickly hydrolyzed to monomeric compound(s). Prior to administration of 2'-5'A3 analogues in vivo to animal, it was considered necessary to determine their stability towards snake venom phosphodiesterase in comparison to the parent 2'-5'A3.
# The solution of 3 μg of the snake venom phosphodiesterase (Boehringer Mannheim cat. No. 108260) in 30 μl of 0.1 M Tris HCl buffer, containing 0.002 M MgCl2 (pH 8.78) is added to the solution of 4-5·10^-7 M trimer in 100 μl of the same buffer. The solution was left standing at 20° C. At regular intervals, 10 μl samples were taken, heated at 90° C. for 1 minute and preparative thin layer chromatography was performed on the Silufole™ plates, using a 7:1:2 mixture of isopropanol:aqueous ammonia:water.
# The spot, corresponding to the initial trimer, was cut out, the substance was extracted with 2 ml of 0.5% solution of the dodecylsulfate sodium salt solution for 2 hours, and the optical density of the solution was determined at 260 nm.
# [2] = system: T-helpers; experiment: Immune system of monkeys: T-helpers, flow cytofluorografic analysis; format: in vivo, Macaque Rh. monkeys
# Description: (§1) The experiments were performed on 4 year-old Macaque Rh. monkeys. The levels of the principal subpopulations of T-lymphocytes, IgA, IgG, IgM and the amount of α- and γ-interferon and interleukin II after administration (2'-5')olygoadenylate and its analogies at the concentration of 50 and 25 μg/kg of the body weight was investigated.
# FLOW CYTOFLUOROGRAFIC ANALYSIS OF LYMPHOCYTE SUBSETS
# Blood samples (100 μl of whole blood) were placed into a 12×17 tube. To these cells 20 μl of purified monoclonal antibodies were added with specificity for human cytotoxic/suppressor cells anti-Leu-2a (CD8), human helper/inducer anti-Leu-3a (CD4) and FITC conjugated monoclonal antibodies with specificity for natural killer cells-anti-Leu11c (CD16) (Becton Dickinson, San Jose). After 30 minutes incubation on ice, the cells were washed once and 20 μl of goat-antimouse chain phycoerythrin (Sigma P1286) conjugate were added to the tube with anti-Leu-2a and anti-Leu-3a monoclonal antibodies.
# After erythrocyte lysing with FACS lysing solution (Becton Dickinson, San Jose) the cells were analyzed on FACScan flow cytometer (Becton Dickinson, San Jose) with scatter gate set on lymphocyte fraction.
# [3] = system: interleukin-II; experiment: Immune system of monkeys: interleukin-II; format: in vivo, Macaque Rh. monkeys
# Description: as §1, with “Immunosuppressive activity of the prototype 2'-5'A3 and two analogues (2'-5')A2 Ar-epoxy and (2'-5')A2 A^l-epoxy were investigated in monkeys. The experiments” for “The experiments”
# (§2) Serum levels of IgG, IgA, IgM were determined by radial immunodiffusion using antisera against human immunoglobulin A, M, G. The amount of interferon and interleukine-II were determined by the method of Lopez-Botet M. et al., 1982.
# [4] = system: IgG, IgA, IgM; experiment: Immune system of monkeys: serum immunoglobulins by radial immunodiffusion; format: in vivo, Macaque Rh. monkeys
# Description: as §1, with “Immunosuppressive activity of the prototype 2'-5'A3 and two analogues (2'-5')A2 Ar-epoxy and (2'-5')A2 A^l-epoxy were investigated in monkeys. The experiments” for “The experiments”
# IMMUNOGLOBULIN DETERMINATION
# as §2
# [5] = single IV 25 μg/kg, day 0 (baseline)
# [6] = single IV 50 μg/kg, day 0 (baseline)
substance,measurement,setting,value
"Adenylyl (2'-5')adenylyl (2'-5')-9-(2,3-anhydro-β-D-ribofuranosyl) adenine disodium salt [(2'-5')A2 Ar-epoxy]",T 1/2 (time for optical density of initial trimer to decrease by 50%),"[1]; 20° C., 0.1 M Tris HCl, 0.002 M MgCl2, pH 8.78",16.0 h
same,stability / resistance to phosphodiesterase,"[1]; in words, disodium salt",significantly more resistant towards hydrolysis by phosphodiesterase; also recorded: more resistant to phosphodiesterase than (2'-5')A2 A^l-epoxy
same,resistance to snake venom phosphodiesterase relative to prototype 2'-5'A3,[1]; vs 2'-5'A3,35 fold
same,T-helpers,[2]; [5],16%
same,T-helpers,"[2]; single IV 25 μg/kg, day 1",20%
same,T-helpers,"[2]; single IV 25 μg/kg, day 2",10%
same,T-helpers,"[2]; single IV 25 μg/kg, day 4",4%
same,T-helpers,"[2]; single IV 25 μg/kg, day 8",5.3%
same,T-helpers,"[2]; single IV 25 μg/kg, day 12",7%
same,T-helpers,"[2]; single IV 25 μg/kg, day 21",23%
same,T-helpers,[2]; [6],30%
same,T-helpers,"[2]; single IV 50 μg/kg, day 1",29%
same,T-helpers,"[2]; single IV 50 μg/kg, day 2",15%
same,T-helpers,"[2]; single IV 50 μg/kg, day 4",1.2%
same,T-helpers,"[2]; single IV 50 μg/kg, day 8",5.0%
same,T-helpers,"[2]; single IV 50 μg/kg, day 12",7.0%
same,T-helpers,"[2]; single IV 50 μg/kg, day 21",30.6%
same,"effect on interleukin-II production, in words","[3]; monkeys, single IV, two weeks",suppresses production of interleukin-II
same,Interleukin-II,[3]; [5],"4 Units per 10,000 lymphocytes"
same,Interleukin-II,"[3]; single IV 25 μg/kg, day 1","2 Units per 10,000 lymphocytes"
same,Interleukin-II,"[3]; single IV 25 μg/kg, day 2","2 Units per 10,000 lymphocytes"
same,Interleukin-II,"[3]; single IV 25 μg/kg, day 12","2 Units per 10,000 lymphocytes"
same,Interleukin-II,"[3]; single IV 25 μg/kg, day 21","4 Units per 10,000 lymphocytes"
same,Interleukin-II,[3]; [6],"8 Units per 10,000 lymphocytes"
same,Interleukin-II,"[3]; single IV 50 μg/kg, day 1","4 Units per 10,000 lymphocytes"
same,Interleukin-II,"[3]; single IV 50 μg/kg, day 2","4 Units per 10,000 lymphocytes"
same,Interleukin-II,"[3]; single IV 50 μg/kg, day 12","4 Units per 10,000 lymphocytes"
same,Interleukin-II,"[3]; single IV 50 μg/kg, day 21","4 Units per 10,000 lymphocytes"
same,IgA,[4]; [5],2.8 g/L
same,IgG,[4]; [5],7.5 g/L
same,IgM,[4]; [5],0.5 g/L
same,IgA,"[4]; single IV 25 μg/kg, day 1",2.0 g/L
same,IgG,"[4]; single IV 25 μg/kg, day 1",7.4 g/L
same,IgM,"[4]; single IV 25 μg/kg, day 1",0.6 g/L
same,IgA,"[4]; single IV 25 μg/kg, day 2",1.1 g/L
same,IgG,"[4]; single IV 25 μg/kg, day 2",5.2 g/L
same,IgM,"[4]; single IV 25 μg/kg, day 2",1.0 g/L
same,IgA,"[4]; single IV 25 μg/kg, day 8",0.53 g/L
same,IgG,"[4]; single IV 25 μg/kg, day 8",14.5 g/L
same,IgM,"[4]; single IV 25 μg/kg, day 8",1.41 g/L
same,IgA,"[4]; single IV 25 μg/kg, day 21",0.38 g/L
same,IgG,"[4]; single IV 25 μg/kg, day 21",14.48 g/L
same,IgM,"[4]; single IV 25 μg/kg, day 21",1.2 g/L
same,IgA,[4]; [6],2.8 g/L
same,IgG,[4]; [6],9.6 g/L
same,IgM,[4]; [6],0.6 g/L
same,IgA,"[4]; single IV 50 μg/kg, day 1",2.7 g/L
same,IgG,"[4]; single IV 50 μg/kg, day 1",7.8 g/L
same,IgM,"[4]; single IV 50 μg/kg, day 1",0.5 g/L
same,IgA,"[4]; single IV 50 μg/kg, day 2",0.8 g/L
same,IgG,"[4]; single IV 50 μg/kg, day 2",15.0 g/L
same,IgM,"[4]; single IV 50 μg/kg, day 2",1.1 g/L
same,IgA,"[4]; single IV 50 μg/kg, day 8",0.9 g/L
same,IgG,"[4]; single IV 50 μg/kg, day 8",14.8 g/L
same,IgM,"[4]; single IV 50 μg/kg, day 8",0.9 g/L
same,IgA,"[4]; single IV 50 μg/kg, day 21",0.38 g/L
same,IgG,"[4]; single IV 50 μg/kg, day 21",13.2 g/L
same,IgM,"[4]; single IV 50 μg/kg, day 21",0.78 g/L

# Reference: patent US5571799A, “(2'-5') oligoadenylate analogues useful as inhibitors of host-v5.-graft response” (Basco, Ltd., priority 1994, dated 1996)
